Data: US8686046B2, “Compositions and methods for inhibiting sphingosine kinase” (University of Virginia Patent Foundation, priority 2008, dated 2014)

Columns and labels:
Sphk1 = molecular target: T1, Sphk1 (Rattus norvegicus, UniProt Q91V26); assay: Sphk1/Sphk2 activity in PDGF-BB-stimulated smooth muscle cells (P32 ATP kinase assay); assay type: cell-based; conditions: cultured rat aortic smooth muscle cells stimulated with PDGF-BB; FIG. 19B
T1 construct: endogenous in cells; host or cells: cultured rat aortic smooth muscle cells
T1 sequence (Q91V26 whole entry): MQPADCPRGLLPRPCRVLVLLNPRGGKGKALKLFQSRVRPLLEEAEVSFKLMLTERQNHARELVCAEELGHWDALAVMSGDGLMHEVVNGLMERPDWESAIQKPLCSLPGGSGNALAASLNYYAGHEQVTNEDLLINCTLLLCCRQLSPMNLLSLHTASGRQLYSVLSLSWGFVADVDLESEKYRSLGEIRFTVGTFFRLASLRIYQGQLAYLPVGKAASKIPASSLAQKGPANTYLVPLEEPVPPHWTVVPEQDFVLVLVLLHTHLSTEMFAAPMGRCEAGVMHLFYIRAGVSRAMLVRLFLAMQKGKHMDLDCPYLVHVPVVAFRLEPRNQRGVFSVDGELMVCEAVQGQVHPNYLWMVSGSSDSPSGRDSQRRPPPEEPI
Method: (§1) Smooth muscle cells (SMCs) are treated with platelet-derived growth factor BB (PDGF-BB), a potent modulator of SMC.
(§2) FIG. 19 illustrates the PDGF-BB increase Sphk1 mRNA, Spkh1 (not Sphk2) activity and S1P production. […] Cultured rat aortic smooth muscle cells were stimulated with PDGF-BB. 19A.) Real-time PCR analysis of Sphk1 mRNA at various time points compared to vehicle control. 19B.) Analysis of Sphk1 and Sphk2 activity (P^32ATP kinase assay). 19C.) S1P concentration in the media 12 hours after stimulating SMCs with PDGF-BB.

S1P production = S1P production by smooth muscle cells (LC/MS); assay type: cell-based, rat
Method: as §1, §2

SMCs [1] = assay: Cell cytotoxicity by Promega caspase activity assay; assay type: cell-based; conditions: after 24 hr treatment, FIG. 21B
SMCs [2] = assay: Images of SMCs treated with and without compound; assay type: cell-based; conditions: FIG. 21C
SphK = SphK inhibition
SMCs [3] = assay: PDGF-BB-induced SMC proliferation by BrdU incorporation; assay type: cell-based; conditions: FIG. 21A
Method: Cell proliferation was measured by BrdU incorporation.

Row | Structure (SMILES) | PDGF-BB-induced Sphk1 activity (Sphk1) | PDGF-BB-induced S1P production (S1P production; 10 uM, S1P in media 12 hours after stimulating SMCs with PDGF-BB, FIG. 19C) | endogenous and PDGF-BB-induced S1P production (S1P production; concentration not given) | cell death (SMCs [1]) | SMC proliferation as indicated by differences in confluence (SMCs [2]) | cell morphology (SMCs [2]) | SphK inhibition (description) (SphK) | PDGF-BB-induced SMC proliferation (SMCs [3])
1 | CCCCCCCCc1ccc(C(=O)N[C@@H](C)C(=N)N)cc1 [VPC94075] | prevents PDFD-BB-induced Sphk1 activity | blocks PDGF-BB-induced S1P production | suppresses both endogenous and PDGF-BB-induced S1P production | does not induce cell death | prevention of SMC proliferation | healthy cell morphology | non-selective SphK inhibitor | 
2 | CCCCCCCCc1ccc(C(=O)NC(C)C(N)=O)cc1 (stereo not drawn) [VPC94193] |  |  |  |  |  |  | inactive form | prevented PDGF-BB-induced SMC proliferation
